The structures appear in SMILES notation.

The test deals with YAP/TAZ-TEAD transcription. Nature of the test: Reporter gene assay for measuring the inhibition of YAP/TAZ-TEAD transcription (TEAD-responsive element luciferase reporter in Hek293T cells). The test is classed as cell-based. Conditions: Homo sapiens, HEK-293T, 24 h, Hek293T cells transiently transfected with TEAD-responsive element luciferase reporter; 24 hours incubation. In outline: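 Readout is SteadyLite luciferase luminescence from a TEAD-responsive element reporter transiently transfected into Hek293T cells, exposed to compounds for 24 h at 37 °C/5% CO2. IC50 derived from percent inhibition, scaled between vehicle basal activity (0%) and positive control inhibitor (100%).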
The molecule `C=CS(=O)(=O)NCC1Cc2ccccc2N(c2ccc(C(F)(F)F)cc2)C1` (stereo not shown) [compound 122, N-((1-(4-(trifluoromethyl)phenyl)-1,2,3,4-tetrahydroquinolin-3-yl)methyl)ethenesulfonamide] yielded an IC50 of under 1000 nM.
The same measure for `O=S1(=O)CCN1CC1Cc2ccccc2N(c2ccc(C(F)(F)F)cc2)C1` (stereo not shown) [compound 123, 2-((1-(4-(trifluoromethyl)phenyl)-1,2,3,4-tetrahydroquinolin-3-yl)methyl)-1,2-thiazetidine-1,1-dioxide]: under 1000 nM; for `CNS(=O)(=O)CCNCC1Cc2ccccc2N(c2ccc(C(F)(F)F)cc2)C1` (stereo not shown) [compound 124, N-methyl-2-(((1-(4-(trifluoromethyl)phenyl)-1,2,3,4-tetrahydroquinolin-3-yl)methyl)amino)ethane-1-sulfonamide]: 1000 to 20000 nM; for `N#CCC(=O)NCC1Cc2ccccc2N(c2ccc(C(F)(F)F)cc2)C1` (stereo not shown) [compound 125, 2-cyano-N-((1-(4-(trifluoromethyl)phenyl)-1,2,3,4-tetrahydroquinolin-3-yl)methyl)acetamide]: under 1000 nM.
Next, `N#CCCNCC1Cc2ccccc2N(c2ccc(C(F)(F)F)cc2)C1` (stereo not shown) [compound 126, 3-(((1-(4-(trifluoromethyl)phenyl)-1,2,3,4-tetrahydroquinolin-3-yl)methyl)amino)propanenitrile]: 1000 to 20000 nM.
For `N#CCNCC1Cc2ccccc2N(c2ccc(C(F)(F)F)cc2)C1` (stereo not shown) [compound 127, 2-(((1-(4-(trifluoromethyl)phenyl)-1,2,3,4-tetrahydroquinolin-3-yl)methyl)amino)acetonitrile], the IC50 is under 1000 nM.
Consider `C=CC(=O)NCC1Cc2c(Cc3ccccc3)cccc2N(c2ccc(C(F)(F)F)cc2)C1` (stereo not shown) [compound 129, N-((5-benzyl-1-(4-(trifluoromethyl)phenyl)-1,2,3,4-tetrahydroquinolin-3-yl)methyl)acrylamide], for which the IC50 was under 1000 nM.
The same measure for `CCC(=O)NCC1Cc2c(Cc3ccccc3)cccc2N(c2ccc(C(F)(F)F)cc2)C1` (stereo not shown) [compound 130, N-((5-benzyl-1-(4-(trifluoromethyl)phenyl)-1,2,3,4-tetrahydroquinolin-3-yl)methyl)propionamide]: under 1000 nM; for `C=CC(=O)NCC1Cc2cc(OC)ccc2N(c2ccc(C(F)(F)F)cc2)C1` (stereo not shown) [compound 131, N-((6-methoxy-1-(4-(trifluoromethyl)phenyl)-1,2,3,4-tetrahydroquinolin-3-yl)methyl)acrylamide]: under 1000 nM.
As to `C=CC(=O)N(C)C1Cc2ccccc2N(c2ccc(C(F)(F)F)cc2)C1` (stereo not shown) [compound 132, N-methyl-N-(1-(4-(trifluoromethyl)phenyl)-1,2,3,4-tetrahydroquinolin-3-yl)acrylamide], the IC50 was under 1000 nM.
In turn, `C=CC(=O)N(CCOC)C1Cc2ccccc2N(c2ccc(C(F)(F)F)cc2)C1` (stereo not shown) [compound 133, N-(2-methoxyethyl)-N-(1-(4-(trifluoromethyl)phenyl)-1,2,3,4-tetrahydroquinolin-3-yl)acrylamide] showed an IC50 of 1000 to 20000 nM.
`C=CC(=O)N(CCOC)CC1Cc2ccccc2N(c2ccc(C(F)(F)F)cc2)C1` (stereo not shown) [compound 135, N-(2-methoxyethyl)-N-((1-(4-(trifluoromethyl)phenyl)-1,2,3,4-tetrahydroquinolin-3-yl)methyl)acrylamide] had an IC50 of under 1000 nM.
Regarding `C=CC(=O)NC1Cc2c(C(N)=O)cccc2N(c2ccc(C(F)(F)F)cc2)C1` (stereo not shown) [compound 136, 3-acrylamido-1-(4-(trifluoromethyl)phenyl)-1,2,3,4-tetrahydroquinoline-5-carboxamide], the IC50 is under 1000 nM.
With `C=CC(=O)NC1Cc2c(-c3nnn[nH]3)cccc2N(c2ccc(C(F)(F)F)cc2)C1` (stereo not shown) [compound 137, N-(5-(1H-tetrazol-5-yl)-1-(4-(trifluoromethyl)phenyl)-1,2,3,4-tetrahydroquinolin-3-yl)acrylamide], the half-inhibitory concentration (IC50) is over 20000 nM.
Next, `C=CC(=O)NC1Cc2c(CN)cccc2N(c2ccc(C(F)(F)F)cc2)C1` (stereo not shown) [compound 138, N-(5-(aminomethyl)-1-(4-(trifluoromethyl)phenyl)-1,2,3,4-tetrahydroquinolin-3-yl)acrylamide]: under 1000 nM.
The molecule `C=CC(=O)NCC1Cc2ccccc2N([C@H]2CC[C@@H](C(F)(F)F)CC2)C1` (stereo partly drawn) [compound 144, cis-N-((1-(4-(trifluoromethyl)cyclohexyl)-1,2,3,4-tetrahydroquinolin-3-yl)methyl)acrylamide] showed an IC50 of under 1000 nM.
Next, `C=CC(=O)NCC1Cc2ccccc2N(C2CCC(F)(F)CC2)C1` (stereo not shown) [compound 145, N-((1-(4,4-difluorocyclohexyl)-1,2,3,4-tetrahydroquinolin-3-yl)methyl)acrylamide]: under 1000 nM; `C=CC(=O)NC1Cc2c(ccnc2N)N(c2ccc(C(F)(F)F)cc2)C1` (stereo not shown) [compound 146, N-(5-amino-1-(4-(trifluoromethyl)phenyl)-1,2,3,4-tetrahydro-1,6-naphthyridin-3-yl)acrylamide]: under 1000 nM; `CCC(=O)NCC1Cc2ccccc2N(c2ccc(C#N)cc2)C1` (stereo not shown) [compound 148, N-((1-(4-cyanophenyl)-1,2,3,4-tetrahydroquinolin-3-yl)methyl)propionamide]: 1000 to 20000 nM.
As for `C=CC(=O)NCC1Cc2ccccc2N(c2ccc(C#N)nc2)C1` (stereo not shown) [compound 151, N-((1-(6-cyanopyridin-3-yl)-1,2,3,4-tetrahydroquinolin-3-yl)methyl)acrylamide], the IC50 is under 1000 nM.
Next, `CCC(=O)NCC1Cc2ccccc2N(c2ccc(C(F)F)nc2)C1` (stereo not shown) [compound 152, N-((1-(6-(difluoromethyl)pyridin-3-yl)-1,2,3,4-tetrahydroquinolin-3-yl)methyl)propionamide]: 1000 to 20000 nM; `CC(=O)NCC1Cc2c(C(=O)O)cccc2N(c2ccc(C(F)(F)F)cc2)C1` (stereo not shown) [compound 155, 3-(acetamidomethyl)-1-(4-(trifluoromethyl)phenyl)-1,2,3,4-tetrahydroquinoline-5-carboxylic acid]: over 20000 nM; `C=CC(=O)NCC1Cc2c(C(=O)NS(C)(=O)=O)cccc2N(c2ccc(C(F)(F)F)cc2)C1` (stereo not shown) [compound 157, 3-(acrylamidomethyl)-N-(methylsulfonyl)-1-(4-(trifluoromethyl)phenyl)-1,2,3,4-tetrahydroquinoline-5-carboxamide]: over 20000 nM.
`C=CC(=O)NCC1Cc2ccccc2N(c2ccc(C=O)cc2)C1` (stereo not shown) [compound 159, N-((1-(4-formylphenyl)-1,2,3,4-tetrahydroquinolin-3-yl)methyl)acrylamide] gave an IC50 of under 1000 nM.
Turning to `C=CC(=O)NC1Cc2c(C(=O)NS(C)(=O)=O)cccc2N(c2ccc(C(F)(F)F)cc2)C1` (stereo not shown) [compound 160, 3-acrylamido-N-(methylsulfonyl)-1-(4-(trifluoromethyl)phenyl)-1,2,3,4-tetrahydroquinoline-5-carboxamide], the IC50 was over 20000 nM.
Next, `C=CC(=O)NC1Cc2c(CC(=O)O)cccc2N(c2ccc(C(F)(F)F)cc2)C1` (stereo not shown) [compound 162, 2-(3-acrylamido-1-(4-(trifluoromethyl)phenyl)-1,2,3,4-tetrahydroquinolin-5-yl)acetic acid]: over 20000 nM; `C=CC(=O)NC1Cc2c(CC(=O)NS(C)(=O)=O)cccc2N(c2ccc(C(F)(F)F)cc2)C1` (stereo not shown) [compound 165, N-(5-(2-(methylsulfonamido)-2-oxoethyl)-1-(4-(trifluoromethyl)phenyl)-1,2,3,4-tetrahydroquinolin-3-yl)acrylamide]: over 20000 nM.
The same measure for `C=CC(=O)NC1Cc2c(-c3noc(=O)[nH]3)cccc2N(c2ccc(C(F)(F)F)cc2)C1` (stereo not shown) [compound 166, N-(5-(5-oxo-4,5-dihydro-1,2,4-oxadiazol-3-yl)-1-(4-(trifluoromethyl)phenyl)-1,2,3,4-tetrahydroquinolin-3-yl)acrylamide]: over 20000 nM; for `C=CC(=O)NCC1Cc2c(-c3noc(=O)[nH]3)cccc2N(c2ccc(C(F)(F)F)cc2)C1` (stereo not shown) [compound 167, N-((5-(5-oxo-4,5-dihydro-1,2,4-oxadiazol-3-yl)-1-(4-(trifluoromethyl)phenyl)-1,2,3,4-tetrahydroquinolin-3-yl)methyl)acrylamide]: over 20000 nM; for `C=CC(=O)NC1Cc2ccccc2N(C(=O)c2ccccc2)C1` (stereo not shown) [compound 172, N-(1-benzoyl-1,2,3,4-tetrahydroquinolin-3-yl)acrylamide]: over 20000 nM.
As for `C=CC(=O)NCC1Cc2ccccc2N(Cc2ccccc2)C1` (stereo not shown) [compound 176, N-((1-benzyl-1,2,3,4-tetrahydroquinolin-3-yl)methyl)acrylamide], the half-inhibitory concentration (IC50) is under 1000 nM.
The same measure for `C=CC(=O)NCC1Cc2ccccc2N(C(=O)c2ccccc2)C1` (stereo not shown) [compound 177, N-((1-benzoyl-1,2,3,4-tetrahydroquinolin-3-yl)methyl)acrylamide]: under 1000 nM.
`C=CC(=O)NCC1Cc2ccccc2N(CC2CCCCC2)C1` (stereo not shown) [compound 179, N-((1-(cyclohexylmethyl)-1,2,3,4-tetrahydroquinolin-3-yl)methyl)acrylamide] returned an IC50 of under 1000 nM.
In the case of `C=CC(=O)NCC1Cc2ccccc2N(C(=O)C2CCCCC2)C1` (stereo not shown) [compound 180, N-((1-(cyclohexanecarbonyl)-1,2,3,4-tetrahydroquinolin-3-yl)methyl)acrylamide], the IC50 is under 1000 nM.
`C=CC(=O)NC1Cc2ccccc2N(Cc2cccc(C(F)(F)F)c2)C1` (stereo not shown) [compound 182, N-(1-(3-(trifluoromethyl)benzyl)-1,2,3,4-tetrahydroquinolin-3-yl)acrylamide] had an IC50 of under 1000 nM.
The same measure for `O=S(=O)(O)CCNCC1Cc2ccccc2N(c2ccc(C(F)(F)F)cc2)C1` (stereo not shown) [compound 183, 2-(((1-(4-(trifluoromethyl)phenyl)-1,2,3,4-tetrahydroquinolin-3-yl)methyl)amino)ethane-1-sulfonic acid]: over 20000 nM; for `C=CC(=O)NCC1Cc2ccccc2N(Cc2cccc(C(F)(F)F)c2)C1` (stereo not shown) [compound 185, N-((1-(3-(trifluoromethyl)benzyl)-1,2,3,4-tetrahydroquinolin-3-yl)methyl)acrylamide]: under 1000 nM.

The record behind these values is patent publication US20240025856A1, “1,2,3,4-TETRAHYDROQUINOLINE DERIVATIVES AS INHIBITORS OF THE YAP/TAZ-TEAD ACTIVATION FOR TREATING CANCER” (KATHOLIEKE UNIVERSITEIT LEUVEN, priority 2020, published 2024).
